Reference: patent US20220242874A1, “CAMPTOTHECIN DERIVATIVES” (SUN PHARMA ADVANCED RESEARCH COMPANY LIMITED, priority 2019, published 2022)
Where a name gives a salt, the structure may show the parent alone. Read-outs that look alike come from different tables or passages of the source.

Experiments:
NCI H526 cells = experiment: In-vitro cancer cell growth inhibition assay (MTT); assay type: cell-based; conditions: Homo sapiens, NCI-H526, 96-144 h, read-out: IC50 (nM) NCI H526
Description: (§1) The compounds of the present invention were evaluated for their ability to inhibit the growth of various cell line models of small cell lung cancer (SCLC), colon cancer, pancreatic cancer and triple negative breast cancer (TNBC) in-vitro. Details of the cell lines and their respective complete growth media are described in Table 3. The growth inhibition assay was carried out as described below. Briefly, cells in complete growth media were seeded in 96-well plates at appropriate cell densities (seeding density details described in Table 3) and incubated at 37° C., 5% CO2 (3-4 hours for NCI-H526, NCI-H69, NCI-H187 and overnight for the rest of the cells). Serial dilutions of test compound in DMSO were added to the cells while maintaining the final DMSO concentration of 0.4%-0.5% in the well. Plates were incubated for 96-144 h (the exact duration for each assay is described in Table 3) at 37° C., 5% CO2. Subsequently, MTT (final concentration 0.5 mg/mL in media) was incubated with the cells at 37° C., 5% CO2 for 4-5 hours. The formazan crystals were dissolved overnight at 37° C., 5% CO2 using 100 μL extractant (10% SDS in 0.01N HCl) and quantified using absorbance at 570 nm with reference wavelength 630 nm. Growth inhibition was represented as percent decrease in absorbance compared to vehicle treated cells.

HT-29 cells = experiment: In-vitro cancer cell growth inhibition assay (MTT); assay type: cell-based; conditions: Homo sapiens, HT-29, 96 h, read-out: IC50 (nM) HT-29
Description: as §1

PANC-1 cells = experiment: In-vitro cancer cell growth inhibition assay (MTT); assay type: cell-based; conditions: Homo sapiens, PANC-1, 96 h, read-out: IC50 (nM) PANC-1
Description: as §1

NCI H69 cells = experiment: In-vitro cancer cell growth inhibition assay (MTT); assay type: cell-based; conditions: Homo sapiens, NCI-H69, 144 h, read-out: IC50 (nM) NCI H69
Description: as §1

NCI H187 cells = experiment: In-vitro cancer cell growth inhibition assay (MTT); assay type: cell-based; conditions: Homo sapiens, NCI-H187, read-out: IC50 (nM) NCI H187
Description: as §1, with “Plates were incubated for 96-144 h (the exact duration for each assay is described in Table 3) at 37° C., 5% CO2.” left out

[1] = Buffer stability (phosphate buffer, 37° C., HPLC); assay type: physicochemical
Description: The representative compounds were first dissolved in a minimum quantity of DMSO in a volumetric flask and diluted up to the mark with diluent (water: acetonitrile 30:70). […] After the elapsed time, the buffer samples were diluted 4 times with acetonitrile and injected into an HPLC system. Quantification of representative compounds was done by HPLC.
HPLC method: Chromatographic separation was achieved on a Hypersil BDS C18 (100×4.6 mm, 5 μ) column using 25 mM KH2PO4 buffer (pH 7 with TEA): acetonitrile, 90:10 v/v as mobile phase-A and 25 mM KH2PO4 buffer (pH 7 with TEA): acetonitrile 30:70 v/v as mobile phase-B. The gradient started with initially 5% B to 45% B in 10 mins followed by 80% B in 22 mins and held up to 25 mins and then returned to initial conditions at 26 mins and continued up to 30 mins. The injection volume was kept 10 μL and the flow rate was kept at 1.0 mL/min. The UV-Vis Detector was set at 220 nm, the column oven was set at 37° C. and the sample cooler was set at […]. Total chromatographic runtime was 30 min.

MX-1 cells = experiment: In-vitro cancer cell growth inhibition assay (MTT); assay type: cell-based; conditions: Homo sapiens, MX1, 144 h, read-out: IC50 (nM) MX-1
Description: as §1

MDA-MB-231 cells = experiment: In-vitro cancer cell growth inhibition assay (MTT); assay type: cell-based; conditions: Homo sapiens, MDA-MB-231, 96 h, read-out: IC50 (nM) MDA-MB-231
Description: as §1

MDA-MB-468 cells = experiment: In-vitro cancer cell growth inhibition assay (MTT); assay type: cell-based; conditions: Homo sapiens, MDA-MB-468, 96 h, read-out: IC50 (nM) MDA-MB-468
Description: as §1

[2] = mouse, 2000 ng/mL, pH 5.5
Description: Aliquot of 100 μL were taken from stability samples in pre-labelled micro-centrifuge tubes. 5 μL of cetirizine working internal standard (5 μg/mL) was added to each tube and vortexed well. 1 mL acetonitrile was added to each tube and vortexed well and then centrifuge at 10000 RPM for 5 min at room temperature. The supernatant was collected in ria vials and evaporated to dryness under nitrogen stream. The samples were reconstituted in 1 mL of 0.1% formic acid in water: acetonitrile 30:70 v/v. The prepared samples were analyzed using LC-MS/MS method. Quantification was done against SN-38 standard, prepared at 2000 ng/mL concentration. SN-38 standard prepared by spiking 5 μL of SN-38 working standard to 95 μL of blank mice tumor homogenate to achieve 2000 ng/mL concentration and vortexed well and processed as described.
LC-MS/MS Method: Chromatographic separation was achieved on Inertsil C8-3 (50×4.6 mm, 5 μ) with a flow rate of 250 μL/min and an injection volume of 10 μL. The sample cooler was maintained at 10° C. The column oven temperature was set to 40° C. The mobile phase consisted of 0.1% formic acid in Milli Q water and acetonitrile in the ratio of 30:70 v/v, respectively. […] The overall chromatographic run time was 4.0 minutes.
Detection was performed by tandem mass spectrometry (TSQ Quantum, Discovery MAX, Thermo Electron Corporation) and peak areas were integrated using LCquan software version 2.9 QF1.
0 hr standard area was considered as 100% for calculation.

| Compound | IC50 (HT-29 cells) [nM] | IC50 (PANC-1 cells) [nM] | IC50 (NCI H69 cells) [nM] | IC50 (NCI H187 cells) [nM] | % of Unconverted Compounds of Formula I ([1]; pH 4.7, 0 hr, 200 μg/ml) [%] | % of Unconverted Compounds of Formula I ([1]; pH 4.7, 2 hr, 200 μg/ml) [%] | % of Unconverted Compounds of Formula I ([1]; pH 4.7, 4 hr, 200 μg/ml) [%] | % of Unconverted Compounds of Formula I ([1]; pH 4.7, 6 hr, 200 μg/ml) [%] | % of Unconverted Compounds of Formula I ([1]; pH 4.7, 8 hr, 200 μg/ml) [%] | % of Unconverted Compounds of Formula I ([1]; pH 6.0, 0 hr, 200 μg/ml) [%] | % of Unconverted Compounds of Formula I ([1]; pH 6.0, 2 hr, 200 μg/ml) [%] | % of Unconverted Compounds of Formula I ([1]; pH 6.0, 4 hr, 200 μg/ml) [%] | % of Unconverted Compounds of Formula I ([1]; pH 6.0, 6 hr, 200 μg/ml) [%] | % of Unconverted Compounds of Formula I ([1]; pH 6.0, 8 hr, 200 μg/ml) [%] | % of Unconverted Compounds of Formula I ([1]; pH 7.4, 0 hr, 200 μg/ml) [%] | % of Unconverted Compounds of Formula I ([1]; pH 7.4, 2 hr, 200 μg/ml) [%] | % of Unconverted Compounds of Formula I ([1]; pH 7.4, 4 hr, 200 μg/ml) [%] | % of Unconverted Compounds of Formula I ([1]; pH 7.4, 6 hr, 200 μg/ml) [%] | % of Unconverted Compounds of Formula I ([1]; pH 7.4, 8 hr, 200 μg/ml) [%] | further results |
| --- | --- | --- | --- | --- | --- | --- | --- | --- | --- | --- | --- | --- | --- | --- | --- | --- | --- | --- | --- | --- |
| CCc1c2c(nc3ccc(O)cc13)-c1cc3c(c(=O)n1C2)COC(=O)[C@@]3(CC)OC(=O)OCCSSCCOC(=O)N(C)c1ccc(N2CCN(C)CC2)cc1.Cl [Compound I.3, 2-(2-{N-Methyl-N-[4-(4-methylpiperazin-1-yl)phenyl]carbamoyloxy}ethyldisulfanyl)ethyl [(4S)-4,11-diethyl-3,4,12,14-tetrahydro-9-hydroxy-1H-pyrano[3′,4′:6,7]indolizino[1,2-b]quinoline-3,14-(4H,12H)dione-4-yl] carbonate hydrochloride] | 43.7 | 862 | 1.2 | 0.68 | 100 | 100 | 100 | 100 | 100 | 100 | 93.8 | 97.8 | 98.2 | 100 | 100 | 100 | 100 | 100 | 100 | IC50 (NCI H526 cells): 1.91 nM |
| CCc1c2c(nc3ccc(O)cc13)-c1cc3c(c(=O)n1C2)COC(=O)[C@@]3(CC)OC(=O)OCCSSCCNC(=O)c1ccc(CN2CCN(C)CC2)cc1 [Compound I.6, 2-(2-{4-[4-Methylpiperazin-1-ylmethyl]benzoylamino}ethyldisulfanyl)ethyl [(4S)-4,11-diethyl-3,4,12,14-tetrahydro-9-hydroxy-1H-pyrano[3′,4′:6,7]indolizino[1,2-b]quinoline-3,14-(4H,12H)dione-4-yl] carbonate dihydrochloride] | 15.7 | 1140 | 2.3 | 0.23 |  |  |  |  |  |  |  |  |  |  |  |  |  |  |  | IC50 (MX-1 cells): 5.4 nM; IC50 (MDA-MB-231 cells): 158 nM; IC50 (MDA-MB-468 cells): 13.7 nM; % of Unconverted Compounds of Formula I ([1]; pH 4.7, 0 hr, 100 μg/ml (footnote *)): 100%; % of Unconverted Compounds of Formula I ([1]; pH 4.7, 2 hr, 100 μg/ml (footnote *)): 96.8%; % of Unconverted Compounds of Formula I ([1]; pH 4.7, 4 hr, 100 μg/ml (footnote *)): 89.8%; % of Unconverted Compounds of Formula I ([1]; pH 4.7, 8 hr, 100 μg/ml (footnote *)): 89.0%; % of Unconverted Compounds of Formula I ([1]; pH 6.0, 0 hr, 100 μg/ml (footnote *)): 100%; % of Unconverted Compounds of Formula I ([1]; pH 6.0, 2 hr, 100 μg/ml (footnote *)): 89.9%; % of Unconverted Compounds of Formula I ([1]; pH 6.0, 4 hr, 100 μg/ml (footnote *)): 89.4%; % of Unconverted Compounds of Formula I ([1]; pH 6.0, 6 hr, 100 μg/ml (footnote *)): 82.5%; % of Unconverted Compounds of Formula I ([1]; pH 6.0, 8 hr, 100 μg/ml (footnote *)): 84.3%; % of Unconverted Compounds of Formula I ([1]; pH 7.4, 0 hr, 100 μg/ml (footnote *)): 100%; % of Unconverted Compounds of Formula I ([1]; pH 7.4, 2 hr, 100 μg/ml (footnote *)): 90.7%; % of Unconverted Compounds of Formula I ([1]; pH 7.4, 4 hr, 100 μg/ml (footnote *)): 81.4%; % of Unconverted Compounds of Formula I ([1]; pH 7.4, 6 hr, 100 μg/ml (footnote *)): 83.7%; % of Unconverted Compounds of Formula I ([1]; pH 7.4, 8 hr, 100 μg/ml (footnote *)): 84.6% |
| CCc1c2c(nc3ccc(O)cc13)-c1cc3c(c(=O)n1C2)COC(=O)[C@@]3(CC)OC(=O)CCCSSCCCC(=O)Nc1ccc(N2CCN(C)CC2)cc1.Cl [Compound I.1, 4-[3-(4-(4-Methylpiperazin-1-yl)phenylcarbamoyl)propyldisulfanyl][(4S)-4,11-diethyl-3,4,12,14-tetrahydro-9-hydroxy-1H-pyrano[3′,4′:6,7]indolizino[1,2-b]quinoline-3,14-(4H,12H)dione-4-yl]butyrate hydrochloride] |  |  |  |  | 100 | 96.3 | 97.4 | 100.0 | 100 | 100 | 95.4 | 97.1 | 97.2 | 97.1 | 100 | 97.7 | 95.5 | 100.0 | 100 |  |
| CCc1c2c(nc3ccc(OC(=O)N4CCC(N5CCCCC5)CC4)cc13)-c1cc3c(c(=O)n1C2)COC(=O)[C@]3(O)CC [Irinotecan, irinotecan hydrochloride] |  |  |  |  |  |  |  |  |  |  |  |  |  |  |  |  |  |  |  | % Remaining in tumor lysate ([2]; 0 h): 100.0%; Concentration of SN-38 formed from the substance ([2]; 0 h): 0.0 ng/mL; % Remaining in tumor lysate ([2]; 1 h): 110.5%; Concentration of SN-38 formed from the substance ([2]; 1 hr): 9.4 ng/mL; % Remaining in tumor lysate ([2]; 2 h): 95.4%; Concentration of SN-38 formed from the substance ([2]; 2 hr): 17.5 ng/mL; % Remaining in tumor lysate ([2]; 4 h): 93.1%; Concentration of SN-38 formed from the substance ([2]; 4 hr): 22.8 ng/mL; % Remaining in tumor lysate ([2]; 6 h): 82.3%; Concentration of SN-38 formed from the substance ([2]; 6 hr): 25.5 ng/mL; Concentration of SN-38 formed from the substance ([2]; 8 h): 29.6 ng/mL |
